Reference: BindingDB's records for doi:10.1021/jm020951i (Uppsala University, 2003)
pKi: −log10 of the molar value.

How the values were obtained:
Test in all cases: Enzyme Inhibition Measurements
Plasmepsin II = Plasmepsin II (Plasmodium falciparum (isolate HB3), UniProt P46925); conditions: pH 4.5; 22 °C
Experimental: (§1) Enzyme activities were assayed by monitoring the hydrolysis of substrate in the presence or absence of inhibitor compounds. The hydrolysis was recorded as the increase in fluorescence intensity over a 10 min time period. IC50 values were obtained by assuming competitive inhibition and fitting the dose response data to the equation (Vi/V0) =1/ (1 + [I]/IC50)). The Ki was calculated by using Ki = IC50/ (1 + [S]/Km), and a Km value determined according to Michaelis-Menten.

Plasmepsin I = Plasmepsin I (Plasmodium falciparum, UniProt P39898); conditions: pH 4.5; 22 °C
Plasmepsin I, sequence (P39898 whole entry): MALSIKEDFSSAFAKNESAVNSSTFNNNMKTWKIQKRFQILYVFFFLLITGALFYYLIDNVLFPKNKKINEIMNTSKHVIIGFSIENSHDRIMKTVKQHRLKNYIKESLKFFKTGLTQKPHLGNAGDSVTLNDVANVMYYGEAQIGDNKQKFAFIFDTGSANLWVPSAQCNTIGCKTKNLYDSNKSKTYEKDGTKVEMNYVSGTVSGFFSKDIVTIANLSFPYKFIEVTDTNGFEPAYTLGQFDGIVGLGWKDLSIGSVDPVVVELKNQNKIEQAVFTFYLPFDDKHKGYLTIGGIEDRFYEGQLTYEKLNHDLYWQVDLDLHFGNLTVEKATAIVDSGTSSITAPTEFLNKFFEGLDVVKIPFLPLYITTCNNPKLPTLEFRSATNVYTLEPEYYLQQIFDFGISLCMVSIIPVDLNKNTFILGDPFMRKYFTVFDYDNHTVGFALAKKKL
Experimental: as §1

Cathepsin D = Cathepsin D (Homo sapiens, UniProt P07339)
Cathepsin D, sequence (P07339 65-162 limits assumed): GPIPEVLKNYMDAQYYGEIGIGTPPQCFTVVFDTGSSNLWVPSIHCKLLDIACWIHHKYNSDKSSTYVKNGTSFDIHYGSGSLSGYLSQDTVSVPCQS
Cathepsin D, sequence (P07339 169-412 limits assumed): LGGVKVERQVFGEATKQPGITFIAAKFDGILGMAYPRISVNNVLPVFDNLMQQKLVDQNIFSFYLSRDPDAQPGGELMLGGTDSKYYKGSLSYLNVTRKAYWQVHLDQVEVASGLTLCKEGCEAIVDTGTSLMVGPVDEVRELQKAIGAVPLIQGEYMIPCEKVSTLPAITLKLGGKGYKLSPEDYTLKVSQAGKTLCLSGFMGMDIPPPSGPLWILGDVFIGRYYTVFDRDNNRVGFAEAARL
Experimental: as §1

Plasmepsin II, sequence (P46925 whole entry): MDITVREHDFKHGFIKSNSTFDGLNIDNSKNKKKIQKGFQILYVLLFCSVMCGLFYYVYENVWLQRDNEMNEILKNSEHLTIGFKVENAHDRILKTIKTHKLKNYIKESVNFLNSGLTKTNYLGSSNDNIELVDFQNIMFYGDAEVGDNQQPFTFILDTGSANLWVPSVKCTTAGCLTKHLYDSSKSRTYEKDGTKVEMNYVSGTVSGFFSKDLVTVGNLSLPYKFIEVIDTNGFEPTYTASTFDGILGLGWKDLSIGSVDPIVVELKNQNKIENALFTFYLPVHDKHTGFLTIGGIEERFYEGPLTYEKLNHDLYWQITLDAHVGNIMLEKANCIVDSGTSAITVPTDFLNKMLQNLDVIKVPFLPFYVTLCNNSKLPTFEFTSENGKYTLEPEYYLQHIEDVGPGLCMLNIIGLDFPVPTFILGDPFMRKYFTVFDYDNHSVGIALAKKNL

| pKi (Cathepsin D) | SMILES | pKi (Plasmepsin II) | pKi (Plasmepsin I) |
| --- | --- | --- | --- |
| 5.77 | Cc1ccc(-c2ccc(C[C@H](NC[C@H](O)[C@H](Cc3ccccc3)NC(=O)[C@@H](NC(=O)c3ccccn3)C(C)C)C(N)=O)cc2)cc1 [(2S)-N-[(2S,3S)-4-{[(1S)-1-carbamoyl-2-[4-(4-methylphenyl)phenyl]ethyl]amino}-3-hydroxy-1-phenylbutan-2-yl]-3-methyl-2-(pyridin-2-ylformamido)butanamide] |  |  |
| 6.00 | CC(C)[C@H](NC(=O)c1ccccn1)C(=O)N[C@@H](Cc1ccccc1)[C@@H](O)CN[C@@H](Cc1ccc(-c2cccc(N)c2)cc1)C(N)=O [(2S,5S,6R)-3-Aza-2-[p-(m-aminophenyl)benzyl]-5-hydroxy-7-phenyl-6-[(picolyl-L-valinyl)amino]heptanoyl Amide] |  |  |

Further lines, the compound ahead of its results:

| SMILES | pKi (Cathepsin D) | pKi (Plasmepsin II) | pKi (Plasmepsin I) |
| --- | --- | --- | --- |
| CC(C)[C@H](NC(=O)c1ccccn1)C(=O)N[C@@H](Cc1ccccc1)[C@@H](O)CN[C@H](Cc1ccccc1)C(N)=O [(2R,5S,6R)-3-Aza-2-benzyl-5-hydroxy-7-phenyl-6-[(picolyl-L-valinyl)amino]heptanoyl Amide] |  | 5.46 | 5.10 |
| CC(C)C[C@H](NC[C@H](O)[C@H](Cc1ccccc1)NC(=O)[C@@H](NC(=O)c1ccccn1)C(C)C)C(N)=O [(2S)-2-{[(2S,3S)-2-hydroxy-3-[(2S)-3-methyl-2-(pyridin-2-ylformamido)butanamido]-4-phenylbutyl]amino}-4-methylpentanamide] |  | 5.48 | 5.54 |
| CC(C)[C@H](NC(=O)c1ccccn1)C(=O)N[C@@H](Cc1ccccc1)[C@@H](O)CN[C@@H](Cc1ccccc1)C(N)=O [(2S,5S,6R)-3-Aza-2-benzyl-5-hydroxy-7-phenyl-6-[(picolyl-L-valinyl)amino]heptanoyl Amide] |  | 5.49 | 5.68 |
| COc1ccccc1-c1ccc(C[C@H](NC[C@H](O)[C@H](Cc2ccccc2)NC(=O)[C@@H](NC(=O)c2ccccn2)C(C)C)C(N)=O)cc1 [(2S,5S,6R)-3-Aza-5-hydroxy-2-[p-(o-methoxyphenyl)-benzyl]-7-phenyl-6-[(picolyl-L-valinyl)amino]heptanoyl Amide] | 5.77 |  |  |
